Like-named read-outs stand apart in the source and are kept apart here. Numbered stars: 1 amine (or outer) side, 2 acyl side, 3 side chain; on linkers, the order of the positions; unused ones are H or OH. Bridge positions count the residues as written; N and C are the ends. Square brackets hold non-standard residues; d marks the D form. Peptide text beside a SMILES is read from it. I, II: the chains in the order shown. Actinocin(9to1) = Cc1c2oc3c(C)ccc(C(=O)[*:1])c3nc-2c(C(=O)[*:2])c(N)c1=O; NMeV = CN[C@H](C(=O)O)C(C)C; Sar = CNCC(=O)O
Tests used:
Experiment in all cases: Secondary dose-response HTS, Cell Titer Glo; call rule not given here
Format in all cases: cell-based, human
MOLM-13 = settings: MOLM-13
MV4-11 = settings: MV4-11; for EC50: Homo sapiens
CHRF288-11 = system: CHRF288-11
CMK = settings: CMK
CMS = system: CMS
M07e = settings: for EC50: Homo sapiens, M-07e
ML2 = settings: ML-2
U937 = system: U937
[1] = secondary high-throughput screen
[2] = secondary high-throughput screen, CHRF288-11
[3] = secondary high-throughput screen, CMS
[4] = secondary high-throughput screen, M07e
[5] = secondary high-throughput screen, U937
[6] = secondary high-throughput screen, read-out: average effective concentration, CMK
[7] = secondary high-throughput screen, […]
[8] = Homo sapiens, secondary high-throughput screen, read-out: average effective concentration, MOLM-13
[9] = secondary high-throughput screen, read-out: average effective concentration, MV4-11
[10] = Homo sapiens, HTS, secondary high-throughput screen, CHRF288-11, read-out: average effective concentration, CHRF288-11
[11] = Homo sapiens, secondary high-throughput screen, read-out: average effective concentration, CMK
[12] = Homo sapiens, HTS, secondary high-throughput screen, CMS, read-out: average effective concentration, CMS
[13] = secondary high-throughput screen, M07e, read-out: average effective concentration, M07e
[14] = Homo sapiens, secondary high-throughput screen, read-out: average effective concentration, ML-2
[15] = Homo sapiens, U-937, secondary high-throughput screen, U937, read-out: average effective concentration, U937
[16] = Homo sapiens, read-out: average effective concentration, CMK
[17] = Homo sapiens, HTS, read-out: average effective concentration, CMS

EC50 (MOLM-13; [8]) [µM]	EC50 (MV4-11; [9]) [µM]	EC50 (U937; [15]) [µM]	Compound	average effective concentration, MOLM-13 (MOLM-13; [1])	average effective concentration, MV4-11 (MV4-11; [1])	average effective concentration, CHRF288-11 (CHRF288-11; [2])	average effective concentration, CMK (CMK; [1])	average effective concentration, CMS (CMS; [3])	average effective concentration, M07e (M07e; [4])	average effective concentration, U937 (U937; [5])	average effective concentration, ML-2 (ML2; [1])	EC50 (CHRF288-11; [10]) [µM]	EC50 (M07e; [13]) [µM]	EC50 (ML2; [14]) [µM]	also measured
			C[n+]1c2cc(N)ccc2cc2ccc(N)cc21	Inactive	Inactive	Inactive	Inactive	Inactive	Inactive	Inactive					EC50 (ML2; secondary high-throughput screen, read-out: average effective concentration, ML-2): 7.7 µM
			NC(=O)C1CCCc2c1[nH]c1ccc(Cl)cc21 (stereo not drawn)	Inactive	Inactive	Inactive	Inactive	Inactive	Inactive	Inactive	Inactive				
			1-NA-PP1 [Compound 1-NA-PP1]	Inactive	Inactive	Inactive		Inactive		Inactive	Inactive				EC50 (CMK; [6]): 2.2 µM; average effective concentration, M07e (M07e; [7]): Inactive
			CN(N=O)C(=O)N[C@H]1C(O)O[C@H](CO)[C@@H](O)[C@@H]1O (mixture of isomers) [STREPTOZOSIN]	Inactive	Inactive	Inactive	Inactive	Inactive	Inactive	Inactive	Inactive				
			CC1CCCCCC(=O)c2c(O)cc(O)cc2CC(=O)O1 (single isomer, unassigned; (-)) [(-)-CURVULARIN]	Inactive	Inactive										EC50 (CHRF288-11; secondary high-throughput screen, CHRF288-11, read-out: average effective concentration, CHRF288-11): 4.7 µM; EC50 (CMK; [6]): 1.5 µM; EC50 (CMS; secondary high-throughput screen, CMS, read-out: average effective concentration, CMS): 0.32 µM; average effective concentration, M07e (M07e; [7]): Inactive; EC50 (U937; secondary high-throughput screen, U937, read-out: average effective concentration, U937): 0.82 µM
			O=C(O)c1ccnc(C(=O)O)c1 [2,4-PDAC]	Inactive	Inactive	Inactive	Inactive	Inactive	Inactive	Inactive	Inactive				
5.6	5.4	6.2	CN(C)C/C=C/C(=O)Nc1cc2c(Nc3ccc(F)c(Cl)c3)ncnc2cc1O[C@H]1CCOC1 [AFATINIB]									6.9	> 10	7	EC50 (CMK; [11]): 3.6 µM; EC50 (CMS; [12]): 8.6 µM
			COCCCn1c(N)c(C(=O)NC2CCCC2)c2nc3ccccc3nc21 [CAY10591]	Inactive	Inactive	Inactive	Inactive	Inactive	Inactive	Inactive	Inactive				
			O=C(NC(NC(=S)Nc1ccc(F)c([N+](=O)[O-])c1)C(Cl)(Cl)Cl)C(c1ccccc1)c1ccccc1 (stereo not drawn) [CGK 733]	Inactive	Inactive	Inactive	Inactive	Inactive	Inactive	Inactive	Inactive				
3.4	5.2	7.5	Cc1cc(C2CCCCC2)n(O)c(=O)c1 [CICLOPIROX]									7.9	7.7	2.4	EC50 (CMK; [11]): 4.7 µM; EC50 (CMS; [12]): 3.9 µM
0.1	0.072	5	CC1(COc2ccc3c(c2)ncn3-c2ccc3cccc(N4CCC(N)CC4)c3n2)COC1 [CRENOLANIB]									0.77	> 10	3.6	EC50 (CMK; [16]): 6.6 µM; EC50 (CMS; [17]): 8.2 µM
3.9	3.9	> 10	C[C@@H](Oc1cc(-c2cnn(C3CCNCC3)c2)cnc1N)c1c(Cl)ccc(F)c1Cl [CRIZOTINIB]									7.8	> 10	4.8	EC50 (CMK; [11]): 4.2 µM; EC50 (CMS; [12]): 8.3 µM
			CCCCCCCCCCCCCCCc1cccc(OCC)c1C(=O)Nc1ccc(Cl)c(C(F)(F)F)c1 [CTPB]		Inactive	Inactive	Inactive	Inactive	Inactive	Inactive	Inactive				EC50 (MOLM-13; secondary high-throughput screen, read-out: average effective concentration, MOLM-13): 0.9 µM
			N#CC(=C(/N)Sc1ccccc1N)/C(C#N)=C(/N)Sc1ccccc1N [Compound U0126]	Inactive	Inactive	Inactive	Inactive	Inactive	Inactive	Inactive	Inactive				
8.3	2.8	2.3	C[C@H]1[C@@H](O)O[C@@H]2O[C@@]3(C)CC[C@H]4[C@H](C)CC[C@@H]1[C@@]24OO3 [DIHYDROARTEMISININ]									9.5	> 10	9	EC50 (CMK; [16]): > 10 µM; EC50 (CMS; [17]): > 10 µM
> 10	> 10		C#Cc1cccc(Nc2ncnc3cc(OCCOC)c(OCCOC)cc23)c1 [ERLOTINIB]			Inactive	Inactive	Inactive	Inactive	Inactive	Inactive				
0.051	0.082	2.9	Cc1cnc(Nc2ccc(OCCN3CCCC3)cc2)nc1Nc1cccc(S(=O)(=O)NC(C)(C)C)c1 [FEDRATINIB]									0.76	2	2.9	EC50 (CMK; [16]): 0.24 µM; EC50 (CMS; [17]): 0.7 µM
			OCCN1CCN(CCCN2c3ccccc3Sc3ccc(C(F)(F)F)cc32)CC1 [FLUFENAZINE]	Inactive	Inactive	Inactive	Inactive	Inactive	Inactive	Inactive					

Compound	EC50 (MOLM-13; [8]) [µM]	EC50 (MV4-11; [9]) [µM]	EC50 (U937; [15]) [µM]	average effective concentration, MOLM-13 (MOLM-13; [1])	average effective concentration, MV4-11 (MV4-11; [1])	average effective concentration, CHRF288-11 (CHRF288-11; [2])	average effective concentration, CMK (CMK; [1])	average effective concentration, CMS (CMS; [3])	average effective concentration, M07e (M07e; [4])	average effective concentration, U937 (U937; [5])	average effective concentration, ML-2 (ML2; [1])	EC50 (CHRF288-11; [10]) [µM]	EC50 (M07e; [13]) [µM]	EC50 (ML2; [14]) [µM]	also measured
Cc1c2oc3c(C)ccc(C(=O)N[C@@H]4C(=O)N[C@H](C(C)C)C(=O)N5CCC[C@H]5C(=O)N(C)CC(=O)N(C)[C@@H](C(C)C)C(=O)O[C@@H]4C)c3nc-2c(C(=O)N[C@@H]2C(=O)N[C@H](C(C)C)C(=O)N3CCC[C@H]3C(=O)N(C)CC(=O)N(C)[C@@H](C(C)C)C(=O)O[C@@H]2C)c(N)c1=O [Dactinomycin, reference compound] (I: T[dV]P[Sar][NMeV] / II: T[dV]P[Sar][NMeV]; ester I:1-I:C, II:1-II:C; linker I:N-II:N via Actinocin(9to1))	0.029	0.043													EC50 (MOLM-13; Homo sapiens, secondary HTS, 72 h, average of triplicate, read-out: EC50 MOLM-13): 0.03 µM; EC50 (MV4-11; secondary HTS, 72 h, average of triplicate, read-out: EC50 MV4-11): 0.04 µM; EC50 (CHRF288-11; Homo sapiens, HTS, 72 h, secondary HTS, 72 h, average of triplicate, read-out: EC50 CHRF288-11): 0.001 µM; EC50 (CMK; Homo sapiens, secondary HTS, 72 h, average of triplicate, read-out: EC50 CMK): 0.001 µM; EC50 (CMS; [12]): 0.036 µM; EC50 (CMS; Homo sapiens, secondary HTS, 72 h, average of triplicate, read-out: EC50 CMS): 0.04 µM; EC50 (M07e; secondary HTS, 72 h, average of triplicate, read-out: EC50 M07e): 0.001 µM; EC50 (ML2; Homo sapiens, secondary HTS, 72 h, average of triplicate, read-out: EC50 ML2): 0.001 µM; EC50 (U937; Homo sapiens, U-937, secondary HTS, 72 h, average of triplicate, read-out: EC50 U937): 0.001 µM
